Laboratory results published in ChEMBL document CHEMBL1138967, “Design, synthesis, and biological evaluation of novel tricyclic HIV-1 integrase inhibitors by modification of its pyridine ring” (Bioorg Med Chem Lett, 2006).

Tests used:
[1] = target: Human immunodeficiency virus type 1 integrase (Human immunodeficiency virus 1, UniProt Q7ZJM1); test: Inhibition of strand transfer activity in HIV1 integrase
[2] = system: Human immunodeficiency virus 1; test: Antiviral activity against HIV1 3B in MT4 cells; assay type: functional, organism-based; details: Human immunodeficiency virus 1, 3B
[3] = system: MT4; test: Cytotoxicity against MT4 cells; assay type: functional; details: Homo sapiens

Sequence of Human immunodeficiency virus type 1 integrase (Q7ZJM1 whole entry): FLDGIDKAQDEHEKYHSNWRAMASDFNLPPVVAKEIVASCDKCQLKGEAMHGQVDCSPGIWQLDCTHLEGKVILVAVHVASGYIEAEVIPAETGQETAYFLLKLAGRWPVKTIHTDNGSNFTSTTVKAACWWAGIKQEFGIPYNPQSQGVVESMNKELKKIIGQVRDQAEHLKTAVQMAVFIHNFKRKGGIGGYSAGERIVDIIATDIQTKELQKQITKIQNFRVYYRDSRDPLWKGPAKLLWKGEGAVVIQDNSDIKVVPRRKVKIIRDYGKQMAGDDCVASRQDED

Row | SMILES | IC50 [1] [nM] | EC50 [2] [nM] | CC50 [3] [nM] | IC50 [2] [nM]
1 | COc1c2c(c(O)c3nccnc13)C(=O)N(Cc1ccc(F)cc1)C2 | 210 | 3550 | 87000 | 
2 | COc1c2c(c(O)c3ncn(Cc4ccccc4)c13)C(=O)N(Cc1ccc(F)cc1)C2 | 24000 |  | 25000 | > 10000
3 | COc1cnc2c(O)c3c(c(OC)c2c1)CN(Cc1ccc(F)cc1)C3=O | 93 | 70 | 2100 | 
4 | COc1c2c(c(O)c3c1NCCN3)C(=O)N(Cc1ccc(F)cc1)C2 | 850 |  |  | > 10000
5 | CN(C)S(=O)(=O)Oc1c2c(c(O)c3ncccc13)C(=O)N(Cc1ccc(F)cc1)C2 |  | 7 | 1400 | 
6 | COc1c2c(c(O)c3ncc(F)cc13)C(=O)N(Cc1ccc(F)cc1)C2 | 7.2 |  | 33300 | 1540
7 | COc1c2c(c(O)c3ncccc13)C(=O)N(Cc1ccc(F)cc1)C2 |  |  | 5100 | 
8 | CN(C)S(=O)(=O)Oc1c2c(c(O)c3nccnc13)C(=O)N(Cc1ccc(F)cc1)C2 | 33 | 540 | 2700 | 
